The molecules below were run against human PAD4 (hPAD4) (Homo sapiens (Human), UniProt Q9UM07) (assay: RFMS Human PAD4 Functional Assay). Conditions: rapid-fire mass spectrum (RFMS) assay; 5 nM hPAD4 enzyme, 250 μM BAEE, 30 min preincubation at 37° C.
Type: biochemical
Protocol: Compounds of the present invention were assayed as inhibitors of PAD4 using the assay protocol described below.
RFMS Human PAD4 Functional Assay:
Compounds were solubilized in 100% DMSO to achieve a10 mM compound concentration. Compound stock solutions were stored at RT. A series of dilutions were prepared in DMSO and mixed 8 times with 20 μL mixing volume. Final top concentration of compound in the assay is 50 μM. Final assay conditions were as follows: • Reaction volume: 26 μl • Assay buffer: 25 mM hepes, pH 7.5, 5 mM NaCl, 1 mM DTT, 0.2 mg/ml BSA, 0.01% CHAPS, 50 μM Calcium, and 5 μM TPEN • Final concentrations: 5 nM hPAD4 enzyme, 250 μM BAEE, and 0.5% DMSO • Total incubation time: 30 mins compound and enzyme preincubation at 37° C., 90 min enzyme/substrate reaction, 30 min reaction with phenyl glyoxal at 37° C. • Stop solution: 40 μl 5% TCA in ACN
0.13 μL of compound solution was added to 13 μL of 10 nM PAD4 in assay buffer. After 30 min 13 μl of 500 μM of BAEE was added in 25 mM hepes, pH 7.5, 5 mM NaCl, 1 mM DTT, 0.2 mg/ml BSA, 0.01% CHAPS, 50 μM Calcium, 5 μM TPEN was added and the reaction incubated for 90 min at 37° C. The enzymatic reaction was quenched by addition of 15 μl of 6.1N TCA, 100% Final Concentration is 20%, 35 μl of 8.5 mM phenyl glyoxal (final concentration 4 mM) is then added and the reaction is incubated for 30 min at 37° C.
After 30 minutes the plates are spun down to remove all precipitate. The enzyme reaction was quenched with an equal volume of methanol containing internal standard (modified citrulline). Samples were loaded onto the Rapid Fire RF300 system (Agilent) wherein they were first sipped for 1000 ms and then directly loaded to a C18 separations cartridge using a mixture of acetonitrile containing 0.01% formic acid for 3000 ms desalting. The flow rate of the mobile phase was 1.5 ml/min. Once the samples were eluted from the cartridge, a mobile phase of acetonitrile containing 0.01% formic acid was used to move the samples into the mass spectrometer for 4000 ms at a flow rate of 1.25 ml/min/Sciex API5500 triple quadrupole mass spectrometer (Applied Biosystems) equipped with ESI was used to analyze the peptidyl citrulline and internal standard ions.
MRM transition of product and internal standard were monitored at m/z 424.5 to 350.4 and m/z 293 to 247 respectively. The dwell time for each transition was set at 200 ms, and the ESI voltage was used at 5500 with a source temperature of 400° C. Extracted ion peaks for each transition were integrated using the Rapid Fire Integrator software. Peak area of analyte was normalized with internal standard.).

Chain of human PAD4 (hPAD4) (Q9UM07 whole entry): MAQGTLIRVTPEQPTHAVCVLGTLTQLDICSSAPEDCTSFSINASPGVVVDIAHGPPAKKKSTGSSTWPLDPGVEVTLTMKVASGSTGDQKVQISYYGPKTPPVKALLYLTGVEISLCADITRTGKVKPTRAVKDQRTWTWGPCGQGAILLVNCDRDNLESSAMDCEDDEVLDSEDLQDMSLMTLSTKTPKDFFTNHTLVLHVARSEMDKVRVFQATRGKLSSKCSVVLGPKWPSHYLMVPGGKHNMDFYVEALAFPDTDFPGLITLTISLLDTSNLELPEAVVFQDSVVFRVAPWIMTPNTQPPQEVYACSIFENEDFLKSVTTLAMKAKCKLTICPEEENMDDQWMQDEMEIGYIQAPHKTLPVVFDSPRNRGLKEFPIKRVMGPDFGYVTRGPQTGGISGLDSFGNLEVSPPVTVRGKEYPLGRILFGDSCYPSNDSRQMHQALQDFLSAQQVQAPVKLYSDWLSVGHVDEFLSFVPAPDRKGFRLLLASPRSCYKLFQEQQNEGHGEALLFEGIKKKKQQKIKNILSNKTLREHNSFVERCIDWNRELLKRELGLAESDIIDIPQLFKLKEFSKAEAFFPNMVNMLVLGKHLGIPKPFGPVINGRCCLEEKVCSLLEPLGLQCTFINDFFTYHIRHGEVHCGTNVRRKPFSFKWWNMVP

Structure (SMILES) | IC50
COc1cc(C(=O)N2C[C@H]3CC[C@@H]2[C@@H]3N)cc2nc(-c3cc4scc(-c5ccncc5)c4n3CC3CC3)n(C)c12 [Example 47, ((1R,4R,7R)-7-amino-2-azabicyclo[2.2.1]heptan-2-yl)(2-(4-(cyclopropylmethyl)-3-(pyridin-4-yl)-4H-thieno[3,2-b]pyrrol-5-yl)-7-methoxy-1-methyl-1H-benzo[d]imidazol-5-yl)methanone] | 147 nM
COc1cc(C(=O)N2C[C@H]3CC[C@@H]2[C@@H]3N)cc2nc(-c3cc4scc(C5CCOCC5)c4n3CC3CC3)n(C)c12 [Example 8, ((1R,4R,7R)-7-amino-2-azabicyclo[2.2.1]heptan-2-yl)(2-(4-(cyclopropylmethyl)-3-(tetrahydro-2H-pyran-4-yl)-4H-thieno[3,2-b]pyrrol-5-yl)-7-methoxy-1-methyl-1H-benzo[d]imidazol-5-yl)methanone] | 40 nM
COc1cc(C(=O)N2C[C@H]3CC[C@@H]2[C@@H]3N)cc2nc(-c3cc4scc(CCN5CCOC5=O)c4n3CC3CC3)n(C)c12 [Example 13, 3-(2-(5-(5-((1R,4R,7R)-7-amino-2-azabicyclo[2.2.1]heptane-2-carbonyl)-7-methoxy-1-methyl-1H-benzo[d]imidazol-2-yl)-4-(cyclopropylmethyl)-4H-thieno[3,2-b]pyrrol-3-yl)ethyl)oxazolidin-2-one] | 54 nM
COc1cc(C(=O)N2C[C@H]3CC[C@@H]2[C@@H]3N)cc2nc(-c3cc4scc(C5COC5)c4n3CC3CC3)n(C)c12 [Example 2, ((1R,4R,7R)-7-amino-2-azabicyclo[2.2.1]heptan-2-yl)(2-(4-(cyclopropylmethyl)-3-(oxetan-3-yl)-4H-thieno[3,2-b]pyrrol-5-yl)-7-methoxy-1-methyl-1H-benzo[d]imidazol-5-yl)methanone] | 63 nM
COc1cc(C(=O)N2C[C@H]3CC[C@@H]2[C@@H]3N)cc2nc(-c3cc4scc(C5CCNCC5)c4n3CC3CC3)n(C)c12 [Example 3, ((1R,4R,7R)-7-amino-2-azabicyclo[2.2.1]heptan-2-yl)(2-(4-(cyclopropylmethyl)-3-(piperidin-4-yl)-4H-thieno[3,2-b]pyrrol-5-yl)-7-methoxy-1-methyl-1H-benzo[d]imidazol-5-yl)methanone] | 12 nM
COc1cc(C(=O)N2C[C@H]3CC[C@@H]2[C@@H]3N)cc2nc(-c3cc4scc(-c5ccn(C(C)C)n5)c4n3CC3CC3)n(C)c12 [Example 34, ((1R,4R,7R)-7-amino-2-azabicyclo[2.2.1]heptan-2-yl)(2-(4-(cyclopropylmethyl)-3-(1-isopropyl-1H-pyrazol-3-yl)-4H-thieno[3,2-b]pyrrol-5-yl)-7-methoxy-1-methyl-1H-benzo[d]imidazol-5-yl)methanone] | 48 nM
COc1cc(C(=O)N2C[C@H]3CC[C@@H]2[C@@H]3N)cc2nc(-c3cc4scc(-c5cnc(C#N)nc5)c4n3CC3CC3)n(C)c12 [Example 41, 5-(5-(5-((1R,4R,7R)-7-amino-2-azabicyclo[2.2.1]heptane-2-carbonyl)-7-methoxy-1-methyl-1H-benzo[d]imidazol-2-yl)-4-(cyclopropylmethyl)-4H-thieno[3,2-b]pyrrol-3-yl)pyrimidine-2-carbonitrile] | 140 nM
COc1cc(C(=O)N2C[C@H]3CC[C@@H]2[C@@H]3N)cc2nc(-c3cc4scc(-c5cnn(C6CCOCC6)c5)c4n3CC3CC3)n(C)c12 [Example 48, ((1R,4R,7R)-7-amino-2-azabicyclo[2.2.1]heptan-2-yl)(2-(4-(cyclopropylmethyl)-3-(1-(tetrahydro-2H-pyran-4-yl)-1H-pyrazol-4-yl)-4H-thieno[3,2-b]pyrrol-5-yl)-7-methoxy-1-methyl-1H-benzo[d]imidazol-5-yl)methanone] | 29 nM
COc1cc(C(=O)N2C[C@H]3CC[C@@H]2[C@@H]3N)cc2nc(-c3cc4scc(CCC(C)(C)O)c4n3CC3CC3)n(C)c12 [Example 6, ((1R,4R,7R)-7-amino-2-azabicyclo[2.2.1]heptan-2-yl)(2-(4-(cyclopropylmethyl)-3-(3-hydroxy-3-methylbutyl)-4H-thieno[3,2-b]pyrrol-5-yl)-7-methoxy-1-methyl-1H-benzo[d]imidazol-5-yl)methanone] | 32 nM
COc1cc(C(=O)N2C[C@H]3CC[C@@H]2[C@@H]3N)cc2nc(-c3cc4scc(C5CCOC5)c4n3CC3CC3)n(C)c12 (stereo partly drawn) [Example 12, ((1R,4R,7R)-7-amino-2-azabicyclo[2.2.1]heptan-2-yl)(2-(4-(cyclopropylmethyl)-3-(tetrahydrofuran-3-yl)-4H-thieno[3,2-b]pyrrol-5-yl)-7-methoxy-1-methyl-1H-benzo[d]imidazol-5-yl)methanone] | 49 nM
COc1cc(C(=O)N2C[C@H]3CC[C@@H]2[C@@H]3N)cc2nc(-c3cc4sc(C)cc4n3CC3CC3)n(C)c12 [Example 27, ((1R,4R,7R)-7-amino-2-azabicyclo[2.2.1]heptan-2-yl)(2-(4-(cyclopropylmethyl)-2-methyl-4H-thieno[3,2-b]pyrrol-5-yl)-7-methoxy-1-methyl-1H-benzo[d]imidazol-5-yl)methanone] | 62 nM
COc1cc(C(=O)N2C[C@H]3CC[C@@H]2[C@@H]3N)cc2nc(-c3cc4scc(-c5cc[nH]n5)c4n3CC3CC3)n(C)c12 [Example 40, ((1R,4R,7R)-7-amino-2-azabicyclo[2.2.1]heptan-2-yl)(2-(4-(cyclopropylmethyl)-3-(1H-pyrazol-3-yl)-4H-thieno[3,2-b]pyrrol-5-yl)-7-methoxy-1-methyl-1H-benzo[d]imidazol-5-yl)methanone] | 24 nM
COc1cc(C(=O)N2C[C@H]3CC[C@@H]2[C@@H]3N)cc2nc(-c3cc4sc(-c5ccncc5)cc4n3CC3CC3)n(C)c12 [Example 25, ((1R,4R,7R)-7-Amino-2-azabicyclo[2.2.1]heptan-2-yl)(2-(4-(cyclopropylmethyl)-2-(pyridin-4-yl)-4H-thieno[3,2-b]pyrrol-5-yl)-7-methoxy-1-methyl-1H-benzo[d]imidazol-5-yl)methanone] | 179 nM
COc1cc(C(=O)N2C[C@H]3CC[C@@H]2[C@@H]3N)cc2nc(-c3cc4scc(C5CN(C(C)=O)C5)c4n3CC3CC3)n(C)c12 [Example 23, 1-(3-(5-(5-((1R,4R,7R)-7-amino-2-azabicyclo[2.2.1]heptane-2-carbonyl)-7-methoxy-1-methyl-1H-benzo[d]imidazol-2-yl)-4-(cyclopropylmethyl)-4H-thieno[3,2-b]pyrrol-3-yl)azetidin-1-yl)ethan-1-one] | 55 nM
COc1cc(C(=O)N2C[C@H]3CC[C@@H]2[C@@H]3N)cc2nc(-c3cc4scc(CCC(N)=O)c4n3CC3CC3)n(C)c12 [Example 11, 3-(5-(5-((1R,4R,7R)-7-amino-2-azabicyclo[2.2.1]heptane-2-carbonyl)-7-methoxy-1-methyl-1H-benzo[d]imidazol-2-yl)-4-(cyclopropylmethyl)-4H-thieno[3,2-b]pyrrol-3-yl)propanamide] | 47 nM
COc1cc(C(=O)N2C[C@H]3CC[C@@H]2[C@@H]3N)cc2nc(-c3cc4scc(-c5cccn5C)c4n3CC3CC3)n(C)c12 [Example 44, ((1R,4R,7R)-7-amino-2-azabicyclo[2.2.1]heptan-2-yl)(2-(4-(cyclopropylmethyl)-3-(1-methyl-1H-pyrrol-2-yl)-4H-thieno[3,2-b]pyrrol-5-yl)-7-methoxy-1-methyl-1H-benzo[d]imidazol-5-yl)methanone] | 113 nM
COc1cc(C(=O)N2C[C@H](N)C[C@@H](F)C2)cc2nc(-c3cc4sccc4n3CC3CC3)n(C)c12 [Example 30, ((3R,5R)-3-amino-5-fluoropiperidin-1-yl)(2-(4-(cyclopropylmethyl)-4H-thieno[3,2-b]pyrrol-5-yl)-7-methoxy-1-methyl-1H-benzo[d]imidazol-5-yl)methanone] | 86 nM
COc1cc(C(=O)N2C[C@H]3CC[C@@H]2[C@@H]3N)cc2nc(-c3cc4scc(-c5cnn(C)c5)c4n3CC3CC3)n(C)c12 [Example 32, ((1R,4R,7R)-7-amino-2-azabicyclo[2.2.1]heptan-2-yl)(2-(4-(cyclopropylmethyl)-3-(1-methyl-1H-pyrazol-4-yl)-4H-thieno[3,2-b]pyrrol-5-yl)-7-methoxy-1-methyl-1H-benzo[d]imidazol-5-yl)methanone] | 17 nM

From patent US11981680B2, “Substituted thienopyrroles as PAD4 inhibitors” (BRISTOL-MYERS SQUIBB COMPANY, priority 2018, dated 2024)
